Data as given in ChEMBL document CHEMBL3886670, “ROR modulators and their uses” (2016).

Target: T1, Nuclear receptor ROR-gamma (Homo sapiens, UniProt P51449)
T1 sequence (P51449 whole entry): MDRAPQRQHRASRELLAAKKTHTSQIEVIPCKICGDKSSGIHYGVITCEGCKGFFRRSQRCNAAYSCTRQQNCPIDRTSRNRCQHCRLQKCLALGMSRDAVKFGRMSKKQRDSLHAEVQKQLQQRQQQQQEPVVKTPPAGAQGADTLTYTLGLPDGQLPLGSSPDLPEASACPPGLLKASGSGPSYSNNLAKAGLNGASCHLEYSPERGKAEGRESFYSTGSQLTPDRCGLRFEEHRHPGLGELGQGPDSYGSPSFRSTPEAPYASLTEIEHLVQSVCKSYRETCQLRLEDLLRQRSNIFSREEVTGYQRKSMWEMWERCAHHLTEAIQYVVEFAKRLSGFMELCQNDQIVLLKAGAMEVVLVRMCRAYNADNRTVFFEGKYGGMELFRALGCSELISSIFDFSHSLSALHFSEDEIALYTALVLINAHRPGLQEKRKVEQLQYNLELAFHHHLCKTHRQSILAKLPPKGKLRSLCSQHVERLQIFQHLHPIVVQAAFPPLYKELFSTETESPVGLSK
Assay: Binding Assay: Compound binding to the human RORγ LBD was assessed using the Human RORγ Assay System (INDIGO Biosciences Inc.) as per manufacturer's instructions. Binding to the RORγ LBD was assessed using gradient concentrations of the indicated compounds in a final concentration of 0.5% DMSO.

`CS(=O)(=O)Nc1ccc2c(c1)CCC(=O)N2Cc1ccc(C(O)(C(F)(F)F)C(F)(F)F)cc1` gave an IC50 of less than 10 µM.
